# Data from ChEMBL document CHEMBL5113478, “7-Azaindole, 2,7-diazaindole, and 1H-pyrazole as core structures for novel anticancer agents with potential chemosensitizing properties” (Eur J Med Chem, 2022).
# Activity calls are given as the source filed them. The calls are words filed in the database; no cut-off is given here.
# Tests used:
# [1] = test system: Jurkat; assay: Antiproliferative activity against human Jurkat cells assessed as […] cell proliferation at 10 uM incubated for 48 hrs in presence of 2 uM of CDDP by WST-1 assay relative to control; type: functional
# [2] = test system: SAOS-2; assay: Antiproliferative activity against human SAOS-2 cells assessed as […] cell proliferation at 10 uM incubated for 48 hrs in presence of 15 uM of CDDP by WST-1 assay relative to control; type: functional
# [3] = test system: A549; assay: Antiproliferative activity against human A549 cells assessed as […] cell proliferation at 10 uM incubated for 48 hrs in presence of 15 uM of CDDP by WST-1 assay relative to control; type: functional
# [4] = test system: A549; assay: Antiproliferative activity against human A549 cells assessed as […] cell proliferation at 10 uM incubated for 48 hrs by WST-1 assay relative to control; type: functional
# [5] = test system: Jurkat; assay: Antiproliferative activity against human Jurkat cells assessed as […] cell proliferation at 10 uM incubated for 48 hrs by WST-1 assay relative to control; type: functional
# [6] = test system: 1321N1; assay: Chemo-sensitizing activity against human 1321N1 cells at 15 uM incubated for 48 hrs in presence of TMZ by MTT assay; type: functional, cell-based
# [7] = test system: HT-29; assay: Antiproliferative activity against human HT-29 cells assessed as […] cell proliferation at 10 uM incubated for 48 hrs by WST-1 assay relative to control; type: functional
# [8] = test system: MOLT-4; assay: Antiproliferative activity against human MOLT-4 cells assessed as […] cell proliferation at 10 uM incubated for 48 hrs by WST-1 assay relative to control; type: functional
# [9] = test system: PANC-1; assay: Antiproliferative activity against human PANC-1 cells assessed as […] cell proliferation at 10 uM incubated for 48 hrs in presence of 15 uM of CDDP by WST-1 assay relative to control; type: functional
# [10] = test system: MCF7; assay: Antiproliferative activity against human MCF7 cells assessed as […] cell proliferation at 10 uM incubated for 48 hrs in presence of 10 uM of CDDP by WST-1 assay relative to control; type: functional
# [11] = test system: MCF7; assay: Antiproliferative activity against human MCF7 cells assessed as […] cell proliferation at 10 uM incubated for 48 hrs by WST-1 assay relative to control; type: functional
# [12] = test system: HeLa; assay: Antiproliferative activity against human HeLa cells assessed as […] cell proliferation at 10 uM incubated for 48 hrs in presence of 15 uM of CDDP by WST-1 assay relative to control; type: functional
# [13] = test system: HeLa; assay: Antiproliferative activity against human HeLa cells assessed as […] cell proliferation at 10 uM incubated for 48 hrs by WST-1 assay relative to control; type: functional
# [14] = test system: MOLT-4; assay: Antiproliferative activity against human MOLT-4 cells assessed as […] cell proliferation at 10 uM incubated for 48 hrs in presence of 2 uM of CDDP by WST-1 assay relative to control; type: functional
# [15] = test system: A2780; assay: Antiproliferative activity against human A2780 cells assessed as […] cell proliferation at 10 uM incubated for 48 hrs by WST-1 assay relative to control; type: functional
# [16] = test system: HT-29; assay: Antiproliferative activity against human HT-29 cells assessed as […] cell proliferation at 10 uM incubated for 48 hrs in presence of 15 uM of CDDP by WST-1 assay relative to control; type: functional
# [17] = test system: PANC-1; assay: Antiproliferative activity against human PANC-1 cells assessed as […] cell proliferation at 10 uM incubated for 48 hrs by WST-1 assay relative to control; type: functional
# [18] = test system: SAOS-2; assay: Antiproliferative activity against human SAOS-2 cells assessed as […] cell proliferation at 10 uM incubated for 48 hrs by WST-1 assay relative to control; type: functional
# [19] = test system: 1321N1; assay: Cytotoxicity against human 1321N1 cells assessed as reduction in cell viability at 15 uM incubated for 48 hrs by MTT assay; type: functional, cell-based
# [20] = test system: A2780; assay: Antiproliferative activity against human A2780 cells assessed as […] cell proliferation at 10 uM incubated for 48 hrs in presence of 2 uM of CDDP by WST-1 assay relative to control; type: functional
# [21] = test system: GBM; assay: Cytotoxicity against patient-derived human GBM cells assessed as reduction in cell viability at 15 uM incubated for 48 hrs by MTT assay; type: functional
SMILES,Activity [1] [%],Activity [2] [%],Activity [3] [%],Activity [4] [%],Activity [5] [%],Cell viability relative to control [7] [%],Activity [8] [%],Activity [9] [%],Activity [10] [%],Activity [11] [%],Activity [12] [%],Activity [13] [%],Activity [14] [%],Activity [15] [%],Activity [16] [%],Activity [17] [%],Activity [18] [%],Activity [20] [%],further results
CC(C)S(=O)(=O)c1ccc(-c2cc(C(=O)N3CCc4ccccc4C3)n[nH]2)cc1,57,57,57,82,82,82,82,57,57,82,57,82,57,82,57,82,82,57,Activity [6]: Active; Activity [19]: Active; Activity [21]: 50%
CCN(CC)c1ccc(CNC(=O)c2c[nH]c3ncc(-c4ccc(S(=O)(=O)C(C)C)cc4)cc23)cc1,58,58,58,64,64,64,64,58,58,64,58,64,58,64,58,64,64,58,Activity [19]: Active; Activity [21]: Active
CCN1CCN(Cc2c[nH]c3ncc(-c4ccc(S(=O)(=O)C(C)C)cc4)cc23)CC1,65,65,65,97,97,97,97,65,65,97,65,97,65,97,65,97,97,65,–
CC(C)S(=O)(=O)c1ccc(-c2cnc3[nH]c(C(=O)NCc4ccccc4)cc3c2)cc1,61,61,61,100,100,100,100,61,61,100,61,100,61,100,61,100,100,61,–
CC(C)S(=O)(=O)c1ccc(-c2cnc3[nH]c(C(=O)Nc4ccccc4)cc3c2)cc1,65,65,65,103,103,103,103,65,65,103,65,103,65,103,65,103,103,65,–
CC(C)S(=O)(=O)c1ccc(-c2cnc3[nH]nc(C(=O)NCc4ccccc4)c3c2)cc1,60,60,60,90,90,90,90,60,60,90,60,90,60,90,60,90,90,60,–
CC(C)S(=O)(=O)c1ccc(-c2cc(C(=O)NCc3ccccc3)n[nH]2)cc1,68,68,68,98,98,98,98,68,68,98,68,98,68,98,68,98,98,68,–
CS(=O)(=O)c1ccc(-c2cnc3[nH]nc(C(=O)N4CCC(c5ccccc5)CC4)c3c2)cc1,71,71,71,92,92,92,92,71,71,92,71,92,71,92,71,92,92,71,–
CC(C)S(=O)(=O)c1ccc(-c2cnc3[nH]c(C(=O)Nc4ccc(N(C)C)cc4)cc3c2)cc1,68,68,68,108,108,108,108,68,68,108,68,108,68,108,68,108,108,68,–
